Results as given in ChEMBL document CHEMBL6177919, “Development, biological evaluation, and molecular modelling of some benzene-sulfonamide derivatives as protein tyrosine phosphatase-1B inhibitors for managing diabetes mellitus and associated metabolic disorders” (RSC Med Chem, 2025).

What follows are compounds tested against T1, Tyrosine-protein phosphatase non-receptor type 1 (Homo sapiens, UniProt P18031).
T1 sequence (P18031 whole entry): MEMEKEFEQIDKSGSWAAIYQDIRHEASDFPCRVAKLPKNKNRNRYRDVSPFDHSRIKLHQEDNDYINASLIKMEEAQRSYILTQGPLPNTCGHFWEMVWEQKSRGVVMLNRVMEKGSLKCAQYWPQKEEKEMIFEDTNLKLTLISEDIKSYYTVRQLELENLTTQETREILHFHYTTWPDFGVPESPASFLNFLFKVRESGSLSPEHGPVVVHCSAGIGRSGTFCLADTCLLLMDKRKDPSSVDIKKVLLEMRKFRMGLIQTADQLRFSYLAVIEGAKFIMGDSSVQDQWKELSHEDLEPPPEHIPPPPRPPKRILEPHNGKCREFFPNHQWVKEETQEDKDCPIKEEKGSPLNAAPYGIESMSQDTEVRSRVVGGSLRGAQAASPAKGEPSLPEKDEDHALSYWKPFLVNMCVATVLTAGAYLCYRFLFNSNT
Description: Inhibition of C-terminal PTP1B (unknown origin)

Compound `COC(=O)CC[C@@H](C)[C@H]1CC[C@H]2[C@@H]3[C@H](O)C[C@H]4C[C@H](NCCCCNCc5ccccn5)CC[C@]4(C)[C@H]3CC[C@]12C` has an IC50 of 100 nM.

Biological target: T1, Tyrosine-protein phosphatase non-receptor type 1
Remark: another data set of the same source
Description: Inhibition of PTP1B (unknown origin)

With `O=C(O)c1ccc(CN2C(=O)S/C(=C\c3ccc(OCc4ccccc4)cc3)C2=O)cc1` the IC50 was 1300 nM.

Biological target: T1, Tyrosine-protein phosphatase non-receptor type 1
Remark: another data set of the same source
Description: Inhibition of human recombinant PTP1B incubated for 15 mins by fluorometric assay

Going from `O=C1CS/C(=N\c2ccccc2)N1c1ccc(S(=O)(=O)Nc2ncccn2)cc1` to `CC1S/C(=N\c2ccc(S(=O)(=O)Nc3ncccn3)cc2)N(c2ccccc2)C1=O` (stereo not given), the IC50 falls from 14000 nM to 1890 nM (7.4-fold).

`CC(=O)C1=CC(=O)N(c2ccc(S(=O)(=O)Nc3ncccn3)cc2)C1=O` and `N#CC1=CC(=O)N(c2ccc(S(=O)(=O)Nc3ncccn3)cc2)C1=O` are within 1.5-fold of each other in IC50: 830 nM for the first, 720 nM for the second.

`CCN1C(=O)C(C)S/C1=N\c1ccc(S(=O)(=O)Nc2ncccn2)cc1` (stereo not given) and `CCN1C(=O)CS/C1=N\c1ccc(S(=O)(=O)Nc2ncccn2)cc1` are within 1.5-fold of each other in IC50: 710 nM for the first, 620 nM for the second.

Going from `CN1CCN(CC(=O)Nc2ccc(S(=O)(=O)Nc3ncccn3)cc2)CC1` to `O=C(CN1CCN(c2ccccc2)CC1)Nc1ccc(S(=O)(=O)Nc2ncccn2)cc1`, the IC50 rises from 570 nM to 3670 nM (6.4-fold). The first is the more potent here.

Going from `CC/N=C1\SCC(=O)N1c1ccc(S(=O)(=O)Nc2ncccn2)cc1` to `N=C1SCC(=O)N1c1ccc(S(=O)(=O)Nc2ncccn2)cc1`, the IC50 falls from 16600 nM to 8970 nM (1.9-fold). The second is the more potent here.

First: CC1O/C(=N\c2ccc(S(=O)(=O)Nc3ncccn3)cc2)N(c2ccccc2)C1=O (stereo not given)
Second: O=S(=O)(Nc1ncccn1)c1ccc(NCc2nc3ccccc3[nH]2)cc1
The IC50 of the first is 2.9-fold higher: 1950 nM for the first, 680 nM for the second.

Compound `CCc1ccc(CCOc2ccc(CC3SC(=O)NC3=O)cc2)nc1` (stereo not given) [PIOGLITAZONE] has an IC50 of 650 nM.
